Experimental findings from patent publication US20100178286A1, “METHODS AND COMPOSITIONS FOR REDUCING FACIAL LINES AND WRINKLES” (priority 2007, published 2010) are described below.

The experiment concerns epidermis / stratum corneum (skin cell renewal). Nature of the experiment: Skin cell renewal (dansyl chloride) method. The class given is in vivo, human. As to conditions: standard positive control; topical, pH 3.0 dissolved in water; vs untreated site. The text has this: Several test methods were used to evaluate results of the compositions according to the present disclosure. One test method used was the skin cell renewal (dansyl chloride) method. The rate of cell renewal, or the transit time for an epidermal basal cell, to mature and slough off the skin surface can be assessed via a dansyl chloride staining method. As we age the rate of renewal decreases from about 15-20 days for a person to about 30 days for a person. […]
The full thickness epidermis was stained with a fluorescent dye as follows: 5% ultra pure dansyl chloride was milled into petrolatum and applied as a very thin film to standard adhesive bandages that were 2 cm by 3 cm. […] Staining was confirmed by viewing the sites with a long wave (ultra violet) UV light source to detect dansyl chloride fluorescence. […]
To assess product effects on cell renewal rates, test products were applied topically twice a day in a randomized fashion to the test sites with an untreated site serving as a control. […] Removal of the stain, reflecting loss of stratum corneum was monitored daily with the UV light source until complete removal, usually occurring in 3-4 weeks, of all stain was noted. The percentage increase in cell renewal was calculated as follows: […]

Turning to `CC(O)C(=O)O` (stereo not shown) [5% lactic acid, lactic acid], the “increases in renewal rates (percentage increase in cell renewal)” value was 25-30%.
